Test results from patent US6277854A, “Tricyclic antitumor farnesyl protein transferase inhibitors” (Schering Corporation, priority 1999, dated 2001).

target: farnesyl protein transferase; assay: In vitro enzyme assay: inhibition of farnesyl protein transferase (FPT), [3H]farnesyl transfer to Ras-CVLS; type: biochemical, rat (brain); human (expressed in E. coli); settings: not given
Excerpt: 1. In vitro enzyme assays: Inhibition of famesyl protein transferase and geranylgeranyl protein transferase.
Farnesyl protein transferase (FPT) was partially purified from rat brain by ammonium sulfate fractionation followed by Q-Sepharose (Pharmacia, Inc.) anion exchange chromatography essentially as described by Yokoyama et al (Yokoyama, K., et al., (1991), A protein geranylgeranyltransferase from bovine brain: Implications for protein prenylation specificity, Proc. Natl. Acad. Sci USA 88: 5302-5306, the disclosure of which is incorporated herein by reference thereto). Human famesyl protein transferase was also expressed in E. coli, using cDNA clones encoding both the a and b subunits. The methods used were similar to those published (Omer, C. et al., (1993), Characterization of recombinant human famesyl protein transferase: Cloning, expression, farnesyl diphosphate binding, and functional homology with yeast prenyl-protein transferases, Biochemistry 32:5167-5176). Human famesyl protein transferase was partially-purified from the soluble protein fraction of E. coli as described above. […] Two forms of val^12 -Ha-Ras protein were prepared as substrates for these enzymes, differing in their carboxy terminal sequence. One form terminated in cysteine-valine-leucine-serine (Ras-CVLS) the other in cystein-valine-leucine-leucine (Ras-CVLL). Ras-CVLS is a substrate for the famesyl protein transferase while Ras-CVLL is a substrate for geranylgeranyl protein transferase I. The cDNAs encoding these proteins were constructed so that the proteins contain an amino-terminal extension of 6 histidine residues. Both proteins were expressed in Escherichia coli and purified using metal chelate affinity chromatography. The radiolabelled isoprenyl pyrophosphate substrates, [^3 H]farnesyl pyrophosphate and [^3 H]geranylgeranyl pyrophosphate, were purchased from DuPon/New England Nuclear.
Several methods for measuring farnesyl protein transferase activity have been described (Reiss et al 1990, Cell 62: 81; Schaber et al 1990, J. Biol. Chem. 265: 14701; Manne et al 1990, PNAS 87: 7541; and Barbacid & Manne 1993, U.S. Pat. No. 5,185,248). […] The reaction was allowed to proceed for 30 minutes at room temperature and then stopped with 0.5 ml of 4% sodium dodecyl sulfate (SDS) followed by 0.5 ml of cold 30% TCA. Samples were allowed to sit on ice for 45 minutes and precipitated Ras protein was then collected on GF/C filter paper mats using a Brandel cell harvester. Filter mats were washed once with 6% TCA, 2% SDS and radioactivity was measured in a Wallac 1204 Betaplate BS liquid scintillation counter. Percent inhibition was calculated relative to the DMSO vehicle control.

Compound	IC50
CN(C)CC(=O)N1CCC(C2c3ncc(Br)cc3CCc3cc(Cl)cc(Cl)c32)CC1 (single isomer, unassigned) [Example 4]	380 nM
CN(C)CCC(=O)N1CCC(C2c3ncc(Br)cc3CCc3cc(Cl)cc(Cl)c32)CC1 (single isomer, unassigned) [Example 5]	56 nM
CN(C)CCCCC(=O)N1CCC(C2c3ncc(Br)cc3CCc3cc(Cl)cc(Cl)c32)CC1 (single isomer, unassigned) [Example 7]	22 nM
CCN(CC)CCC(=O)N1CCC(C2c3ncc(Br)cc3CCc3cc(Cl)cc(Cl)c32)CC1 (single isomer, unassigned) [Example 8]	14 nM
O=C(CCN1CCCCC1)N1CCC(C2c3ncc(Br)cc3CCc3cc(Cl)cc(Cl)c32)CC1 (single isomer, unassigned) [Example 9]	6 nM
O=C(CN1CCCC1=O)N1CCC(C2c3ncc(Br)cc3CCc3cc(Cl)cc(Cl)c32)CC1 (single isomer, unassigned) [Example 10]	19 nM
O=C(CCN1C(=O)CCC1=O)N1CCC(C2c3ncc(Br)cc3CCc3cc(Cl)cc(Cl)c32)CC1 (single isomer, unassigned) [Example 11]	76 nM
NC(=O)CCC(=O)N1CCC(C2c3ncc(Br)cc3CCc3cc(Cl)cc(Cl)c32)CC1 (single isomer, unassigned) [Example 12]	61 nM
CN(C)C(=O)CCC(=O)N1CCC(C2c3ncc(Br)cc3CCc3cc(Cl)cc(Cl)c32)CC1 (single isomer, unassigned) [Example 13]	15 nM
O=C(CCC(=O)N1CCC(C2c3ncc(Br)cc3CCc3cc(Cl)cc(Cl)c32)CC1)N1CCCC1 (single isomer, unassigned) [Example 14]	16 nM
CC(=O)NCCCC(=O)N1CCC(C2c3ncc(Br)cc3CCc3cc(Cl)cc(Cl)c32)CC1 (single isomer, unassigned) [Example 15]	63 nM
O=C(NCCCC(=O)N1CCC(C2c3ncc(Br)cc3CCc3cc(Cl)cc(Cl)c32)CC1)Nc1ccccc1 (single isomer, unassigned) [Example 16]	> 100 nM
O=C(CCCCCN1C(=O)C=CC1=O)N1CCC(C2c3ncc(Br)cc3CCc3cc(Cl)cc(Cl)c32)CC1 (single isomer, unassigned) [Example 23]	620 nM
NC(=O)N1CCC(C2c3ncc(Br)cc3CCc3cc(Cl)cc(Cl)c32)CC1 (single isomer, unassigned; (+)) [Example 1, (+)-4-(3-BROMO-8,10-DICHLORO-6,11-DIHYDRO-5H-BENZO[5,6]-CYCLOHEPTA[1 ,2-b]PYRIDIN-11-YL)-1-PIPERIDINE CARBOXAMIDE]	390 nM
CN(C)CCCC(=O)N1CCC(C2c3ncc(Br)cc3CCc3cc(Cl)cc(Br)c32)CC1 (single isomer, unassigned; (+)) [Example 2, (+)-4-(3,10-DIBROMO-8-CHLORO-6,11-DIHYDRO-5H-BENZO[5,6]-CYCLO-HEPTA[1,2-b]PYRIDIN-11-YL)-1-[4-(DIMETHYLAMINO)-1-OXOBUTYL]PIPERIDINE]	4 nM
NCC(=O)N1CCC(C2c3ncc(Br)cc3CCc3cc(Cl)cc(Cl)c32)CC1 (single isomer, unassigned; (+)) [Example 3, (+)-1-(AMINOACETYL)-4-(3-BROMO-8,10-DICHLORO-6,11-DIHYDRO-5H-BENZO[5,6]CYCLO-HEPTA[1,2-b]PYRIDIN-11-YL) PIPERIDINE]	1100 nM
NCCCC(=O)N1CCC(C2c3ncc(Br)cc3CCc3cc(Cl)cc(Cl)c32)CC1 (single isomer, unassigned; (+)) [Example 27, (+)-1-(4-AMINO-1-OXOBUTYL)-4-(3-BROMO-8,10-DICHLORO-6,11-DIHYDRO-5H-BENZO[5,6]CYCLO-HEPTA[1,2-b]PYRIDIN-11-YL) PIPERIDINE]	130 nM
NC(=O)NCCCC(=O)N1CCC(C2c3ncc(Br)cc3CCc3cc(Cl)cc(Cl)c32)CC1 (single isomer, unassigned; (+)) [Example 31]	58 nM
O=C(CCCC(=O)N1CCC(C2c3ncc(Br)cc3CCc3cc(Cl)cc(Cl)c32)CC1)Nc1cccnc1 (centres unmarked) [Example 17]	~100 nM
CC(C)(C)OC(=O)NCC(=O)N1CCC(C2c3ncc(Br)cc3CCc3cc(Cl)cc(Cl)c32)CC1 (centres unmarked) [Example 26]	540 nM
CCOC(=O)CC(=O)N1CCC([C@H]2c3ncc(Br)cc3CCc3cc(Cl)cc(Br)c32)CC1 [Example 45, (+)-ETHYL 4-(3,10-DIBROMO-8-CHLORO-6,11-DIHYDRO-5H-BENZO[5,6]CYCLO-HEPTA[1,2-b]PYRIDIN-11(R)-YL)-BETA-OXO-1-PIPERIDININE PROPANOATE]	28 nM
O=C(O)CC(=O)N1CCC([C@H]2c3ncc(Br)cc3CCc3cc(Cl)cc(Br)c32)CC1 [Example 46, (+)-SODIUM 4-(3,10-DIBROMO-8-CHLORO-6,11-DIHYDRO-5H-BENZO[5,6]CYCLO-HEPTA[1,2-b]PYRIDIN-11(R)-YL)-BETA-OXO-1-PIPERIDININE PROPANOATE]	78 nM
NC(=O)CC(=O)N1CCC([C@H]2c3ncc(Br)cc3CCc3cc(Cl)cc(Br)c32)CC1 [Example 47, 4-(3,10-DIBROMO-8-CHLORO-6,11-DIHYDRO-5H-BENZO[5,6]CYCLO-HEPTA[1,2-b]PYRIDIN-11(R)-YL)-BETA-OXO -1-PIPERIDININE PROPANAMIDE]	68 nM
COC(=O)CCC(=O)N1CCC([C@H]2c3ncc(Br)cc3CCc3cc(Cl)cc(Br)c32)CC1 [Example 48, (+)-METHYL 4-(3,10-DIBROMO-8-CHLORO-6,11-DIHYDRO-5H-BENZO[5,6]CYCLO-HEPTA[1,2-b]PYRIDIN-11(R)-YL)-GAMMA-OXO -1-PIPERIDININE BUTANOATE]	9 nM
O=C(O)CCC(=O)N1CCC([C@H]2c3ncc(Br)cc3CCc3cc(Cl)cc(Br)c32)CC1 [Example 49, (+)-SODIUM 4-(3,10-DIBROMO-B-CHLORO-6,11-DIHYDRO-5H-BENZO[5,6]CYCLO-HEPTA[1,2-b]PYRIDIN-11(R)-YL)-GAMMA-OXO-1-PIPERIDININE BUTANOATE]	270 nM
NC(=O)CCC(=O)N1CCC([C@H]2c3ncc(Br)cc3CCc3cc(Cl)cc(Br)c32)CC1 [Example 50, (+)-4-(3,10-DIBROMO-8-CHLORO-6,11-DIHYDRO-5H-BENZO[5,6]CYCLO-HEPTA[1,2-b]PYRIDIN-11(R)-YL)-GAMMA-OXO -1-PIPERIDININE BUTANAMIDE]	14 nM

same assay, conditions: @ 0.06 μg/μL

Compound	FPT inhibition
O=C(CCCC(=O)N1CCC(C2c3ncc(Br)cc3CCc3cc(Cl)cc(Cl)c32)CC1)Nc1ccccc1 (single isomer, unassigned) [Example 19]	21%
O=C(CCCC(=O)N1CCC(C2c3ncc(Br)cc3CCc3cc(Cl)cc(Cl)c32)CC1)NCc1ccccc1 (single isomer, unassigned) [Example 21]	35%
O=C(NCCCC(=O)N1CCC(C2c3ncc(Br)cc3CCc3cc(Cl)cc(Cl)c32)CC1)c1ccncc1 (single isomer, unassigned) [Example 24]	20%
O=C(NCCCCC(=O)N1CCC(C2c3ncc(Br)cc3CCc3cc(Cl)cc(Cl)c32)CC1)c1ccccc1 (centres unmarked) [Example 22]	41%

same assay, conditions: @ 88 nM

Compound	FPT inhibition
O=C(CCCN1C(=O)c2ccccc2C1=O)N1CCC(C2c3ncc(Br)cc3CCc3cc(Cl)cc(Br)c32)CC1 (single isomer, unassigned; (+)) [Example 32, (+)-4-(3,10-DIBROMO-8-CHLORO-6,11-DIHYDRO-5H-BENZO[5,6]CYCLO-HEPTA[1,2-b]PYRIDIN-11-YL)-1-[4-(1,3-DIHYDRO-1,3-DIOXO-2H-ISOINDOL-2-YL)-1-OXOBUTYL]PIPERIDINE]	12%

same assay, conditions: @ 92 nM

Compound	FPT inhibition
O=C(CCCC(=O)N1CCC(C2c3ncc(Br)cc3CCc3cc(Cl)cc(Cl)c32)CC1)Nc1ccc(Cl)cc1 (single isomer, unassigned) [Example 20]	0%

same assay, conditions: @ 93 nM

Compound	FPT inhibition
O=C(NCCCC(=O)N1CCC(C2c3ncc(Br)cc3CCc3cc(Cl)cc(Cl)c32)CC1)c1cccnc1 (single isomer, unassigned) [Example 18]	9%

same assay, conditions: @ 93.4 nM

Compound	FPT inhibition
O=C(CCCN1C(=O)c2ccncc2C1=O)N1CCC(C2c3ncc(Br)cc3CCc3cc(Cl)cc(Cl)c32)CC1 (centres unmarked) [Example 33, 4-(8,10-DICHLORO-3-BROMO-6,11-DIHYDRO-5H-BENZO[5,6]CYCLO-HEPTA[1,2-b]PYRIDIN-11-YL)-1-[4-(1,3-DIHYDRO-1,3-DIOXO-2H-PYRROLO-[3,4c]-PYRIDINE-2-YL)-1-OXOBUTYL]PIPERIDINE]	38.7%

same assay, conditions: @ 330 nM

Compound	FPT inhibition
CC(C)(C)OC(=O)NCCCC(=O)N1CCC(C2c3ncc(Br)cc3CCc3cc(Cl)cc(Cl)c32)CC1 (centres unmarked) [Example 25]	47%
